Results published in ChEMBL document CHEMBL1201862, “PubChem BioAssay data set” (2004).
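96-well plates; 48 h exposure; 5 concentrations. Endpoints by linear interpolation between flanking doses. Not reached: highest tested concentration assigned. Here, GI50 denotes the concentration required for 50% inhibition of growth.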 The source made the active and inactive calls. No stated cut-off is given here; in the data, active = GI50 up to about 1.1 µM and inactive = higher. Positions of bridges follow the written chain, without caps; N, C: chain ends. Non-standard residues stand in square brackets, D forms with d. Residues, ends and D or L forms follow the SMILES beside them. Aib = CC(C)(N)C(=O)O; βAla = NCCC(=O)O

Experiments:
Assay in all cases: inhibition of tumour cell growth, NCI panel, 48 h
M19-MEL = system: M19-MEL
XF498 = system: XF498
DMS-273 = system: DMS-273
DLD-1 = system: DLD-1
KM-20L2 = system: KM-20L2
SNB-78 = system: SNB-78
LXFL 529 = system: LXFL 529
BT-549 = system: BT-549

Compound	GI50 (M19-MEL)	GI50 (XF498)	GI50 (DMS-273)	GI50 (DLD-1)	GI50 (KM-20L2)	GI50 (SNB-78)	GI50 (LXFL 529)	GI50 (BT-549)
COc1cc(OC)c2ssc3c(OC)cc(OC)c4ssc1c2-c43	> 100 µM (inactive)	> 100 µM (inactive)	> 100 µM (inactive)	> 100 µM (inactive)	> 100 µM (inactive)	> 100 µM (inactive)	> 100 µM (inactive)	–
CCCCCCCCCCCCCCCCNc1cccc2ccccc12	> 100 µM (inactive)	–	> 100 µM (inactive)	> 100 µM (inactive)	> 100 µM (inactive)	> 100 µM (inactive)	> 100 µM (inactive)	–
O=C(Nc1ccc(Cl)cc1Cl)C1C(=O)C(=O)N(c2ccc(Cl)cc2Cl)C1=O (centres undefined)	> 100 µM (inactive)	–	–	> 100 µM (inactive)	> 100 µM (inactive)	> 100 µM (inactive)	> 100 µM (inactive)	–
NC(=O)N=C(NCc1ccccc1)NCc1ccccc1	–	–	> 100 µM (inactive)	> 100 µM (inactive)	> 100 µM (inactive)	> 100 µM (inactive)	> 100 µM (inactive)	–
Clc1cccc(C2N3CCCCC3[C@@H]3c4[nH]c5ccccc5c4CCN23)c1 (some centres undefined)	20.1 µM (inactive)	20.9 µM (inactive)	30.1 µM (inactive)	30.3 µM (inactive)	56.8 µM (inactive)	–	–	–
Fc1ccc(F)c(C2SCc3nc4ccccc4n32)c1 (centres undefined)	48.2 µM (inactive)	–	20.5 µM (inactive)	> 100 µM (inactive)	> 100 µM (inactive)	52.5 µM (inactive)	53.3 µM (inactive)	–
CCOC(=O)/C=C1\Nc2ccccc2-n2nnnc21	> 100 µM (inactive)	–	30.3 µM (inactive)	> 100 µM (inactive)	> 100 µM (inactive)	> 100 µM (inactive)	> 100 µM (inactive)	–
COC(=O)C1=CC(O)CCC1c1ccc(OC)cc1 (centres undefined)	> 100 µM (inactive)	–	> 100 µM (inactive)	> 100 µM (inactive)	> 100 µM (inactive)	> 100 µM (inactive)	> 100 µM (inactive)	–
CN(CCN(C)C(=O)CCn1ccc(=O)[nH]c1=O)C(=O)CCn1ccc(=O)[nH]c1=O	> 100 µM (inactive)	> 100 µM (inactive)	> 100 µM (inactive)	–	> 100 µM (inactive)	> 100 µM (inactive)	> 100 µM (inactive)	–
CN(C)CC(C)(C)C(/C=C/c1ccccc1)=N\Nc1ccccc1	10 µM (inactive)	–	0.335 µM (active)	0.199 µM (active)	0.0217 µM (active)	11 µM (inactive)	0.197 µM (active)	–
O=C(O)C(Cc1ccccc1)N1C(=O)N/C(=C\c2ccc(F)cc2)C1=O (centres undefined)	> 100 µM (inactive)	–	> 100 µM (inactive)	> 100 µM (inactive)	–	18.4 µM (inactive)	> 100 µM (inactive)	–
O=S(=O)(O)c1ccc([Se][Se]c2ccc(S(=O)(=O)O)cc2)cc1	> 100 µM (inactive)	> 100 µM (inactive)	76.7 µM (inactive)	> 100 µM (inactive)	> 100 µM (inactive)	> 100 µM (inactive)	51.2 µM (inactive)	–
CN(C)CC[N+](C)(C)[BH2-]C(O)O	–	–	–	–	–	–	–	> 100 µM (inactive)
COC(=O)C1C2C=CC(C2)N1[C@@H](C)c1ccccc1 (some centres undefined)	> 100 µM (inactive)	–	> 100 µM (inactive)	> 100 µM (inactive)	> 100 µM (inactive)	> 100 µM (inactive)	> 100 µM (inactive)	–
COc1cc(/C=C2/C(=O)N(C(=O)c3ccccc3O)N=C2C)ccc1O	0.653 µM (active)	0.0723 µM (active)	–	0.0603 µM (active)	18.5 µM (inactive)	–	0.0515 µM (active)	–
CC1(C)NC(=O)C(NC(=O)C(N)CC(=O)O)CCCCNC(=O)CCNC1=O (centres undefined) (H-DK[Aib][βAla]; lactam 2-C; configuration not given here)	–	–	–	–	–	–	–	> 100 µM (inactive)
C[C@@H]1C[C@@H]2OC(=O)[C@]3(C)[C@H]2[C@@H](OC3(C)O)[C@]2(C)C(=O)C=C[C@@H]12 (some centres undefined) [TENULIN]	–	–	–	–	–	–	–	10.1 µM (inactive)
